One series deals with severe dysthymia. The experiment in a line: Patient No. 3 treatment of severe dysthymia. It counts as in vivo, human. The source says: Patient No. 3 was a divorced person experiencing chronic suicidal depression for about 15 years. For as long as the patient can remember, they have had episodic, mild-to-moderate mood swings. Approximately 15 years ago, their condition worsened and they were depressed almost daily. Their thoughts were slowed down, they felt intensely sad, guilty, worthless, confused, and desperate. Over a period of approximately two years they underwent therapy with a social worker and psychotherapy with a psychiatrist, with little positive results. No pharmaco-therapy was involved in either of these treatments. Initially, Patient No. 3 met with the inventor and identified a childhood source as a partial cause of their depression, low self-esteem and dysfunctional thinking. Although they appreciated the insights gained through the psychoanalysis/psychotherapy with the inventor, their depression persisted unabated. They were rejected by their girlfriend and became frighteningly suicidal. […] Within six months they developed a tolerance to the drug and it was increased to 100 mg per day with no effect. They stopped […]® and started bupropion 100 mg b.i.d and lithium 300 mg t.i.d. Bupropion is an aminoketone antidepressant, and lithium is a metal used to treat bipolar disorder. […] Their condition was desperate and life-threatening.

Series [1] relates to pre-menstrual syndrome (PMS). The conditions noted are these: women with PMS treated with fluoxetine; cited from earlier work.
Series [2] deals with pre-menstrual syndrome (PMS) and major depression. The experiment in a line: Patient No. 4 treatment of major depression and self-rating of pre-menstrual syndrome symptoms. It counts as in vivo, human. The method, then:
Patient No. 4 was a person who has struggled to overcome a wide variety of psychiatric symptoms, two of which are depression and pre-menstrual syndrome (PMS). After several treatments, it was determined that a combination of paroxetine 20 mg t.i.d. and lithium 300 mg t.i.d. diminished their symptoms of obsessive-compulsive disorder, depression, hypomania and PMS.
In FIGS. 6-8 the abbreviations for each symptom on the graphs may be translated as follows:
Patient No. 4's formal diagnoses were Multiple Personality Disorder, Obsessive-Compulsive Disorder, Major Depression Disorder, Alcoholism (recovering), and Pre-Menstrual Syndrome (PMS).
Set forth below in Table 1 are the research criteria set forth in the Diagnostic and Statistical Manual of Mental Disorders, Forth edition, published by the American Psychiatric Association for Pre-Menstrual Dysphoric Disorder, or Pre-Menstrual Syndrome.
They described a typical menses as follows. They were usually moderately to severely depressed for at least two days during the week before their menses. They had sudden mood swings. One moment they would be crying and the next they would be laughing wildly, or they would have sudden outbursts of anger. They were markedly tense and would fidget constantly. They tired easily and lacked energy. They could barely drag themself out of bed each morning. They craved carbohydrates and often would eat several doughnuts, whole cakes, or boxes of cookies. They slept little, and for two or three nights they would have night sweats that drenched their bed. They also experienced back cramps, bloating and pains in their joints and muscles. They had trouble concentrating and was unable to do life's simplest chores. Their PMS interfered with their ability to function. They lost interest in their favorite hobby, reading.

Series [3] deals with depression in the form of dysthymia. The series can be described thus: Patient No. 1 weekly blinded component study with Beck Scale and SCL-90 Scale self-rating. The conditions noted are these: for patient-reported symptoms during week: component taken along with sertraline 125 mg qd. Type of series: in vivo, human. The method, then: Patient No. 1 was a person who, after a series of psychoanalysis/psychotherapy sessions, was diagnosed as suffering from depression in the form of dysthymia. Patient No. 1 experienced a chronic low mood with markedly diminished interest and pleasure in all activities including work, eating, and sexual relations.
Initially, Patient No. 1 was treated only with the known antidepressant sertraline (sold under the registered trademark ZOLOFT®). Sertraline is a selective serotonin reuptake inhibitor. Sertraline was administered in amounts from 50 to 150 mg qd (per day); the ideal dose for this patient was ultimately determined to be 125 mg qd (per day).
Independent of the sertraline treatments, the patient began taking a vitamin and mineral supplement that included a series of components. […] As such improvement was unexpected, a study of the components of the mineral preparation was undertaken. During this study, Patient No. 1 stopped taking the composite preparation.
In this study, Patient No. 1 took one component of the preparation at a time according to a schedule of one pill a day for five days, Monday through Friday. At the end of each week, they filled out two self-rating scales that are used in the diagnosis and monitoring of depression. These scales are the Beck Scale and the SCL-90 Scale, both of which are well known in the field of psychiatry and psychotherapy. Patient No. 1 continued to take sertraline at 125 mg per day. During the study, Patient No. 1 was not informed of what they were taking.
The series of events described in the above example are more fully set forth in the graphs in FIGS. 1 and 2. FIG. 1 is a bar graph displaying the scores on the Beck Scale, a self-rating scale for depression, at the end of each weekly treatment.
FIG. 2 is a bar graph of the total score on the SCL-90 Scale. The SCL-90 is composed of 90 questions. It is designed to measure symptoms of somatization, obsessive-compulsive behavior, interpersonal sensitivity, depression, anxiety, hostility, phobic anxiety, paranoid ideation, and psychoticism. It is noted that the grand total of scores on each Friday closely parallels the results of the Beck Scale.

The subject of another series is dysthymia. The series can be described thus: Patient No. 2 weekly component study with Beck Scale and SCL-90 Scale. Type of series: in vivo, human. The procedure:
Patient No. 2 was a single person. They are the child of Patient No. 1. They complained of weight gain, hyperphagia, hypersomnia, loss of interest in sex, irritability and an inability to concentrate. They stated that they had been seeing psychotherapists since they were […], but had no success in dealing with their depression. They were also diagnosed as having dysthymia.
They had taken sertraline in the amount of 50 mg qd with little help. This dosage was increased to 100 mg qd which proceeded for a period of five weeks. […] They were not as weepy and their outlook was less negative. Their interest in sex was increased. Their appetite remained the same.
Patient No. 2 then began a similar study as that described above for Patient No. 1. For the first week, they took one vitamin C tablet daily along with 100 mg of sertraline. Their depression appeared to worsen as reflected by their grand total Beck score of +12 and their SCL-90 of +4 as more fully portrayed on the FIG. 4.
For Patient No. 2, FIG. 4 presents Patient No. 2's Beck Scale total scores, and FIG. 5 presents a graph of the four subscales of somatization, obsessive-compulsive, depression, and anxiety on the SCL-90 Scale.

In another series the test system is alcohol craving. The series can be described thus: Patient No. 1 alcohol craving while taking chromium picolinate alone. It counts as in vivo, human. From the text: During the later stages of the study described above, when Patient No. 1 was taking chromium picolinate alone, they also noticed a change in their ability to tolerate alcohol. Both of their parents were alcoholics so they guarded carefully against this outcome by drinking infrequently.
Despite this effort, […] often experienced intense cravings for alcohol. Prior to […] treatment with chromium, when […] consumed alcohol, […] could only drink it by gulping it. […] experienced rapid intoxication, unpleasant feelings, and a severe hangover the next day. […] […] also observed that […] could drink in moderation, without having a severe hangover the next day.

In series [4] the test system is depression in the form of dysthymia. The experiment in a line: Patient No. 1 weekly blinded component study with Beck Scale and SCL-90 Scale self-rating. It counts as in vivo, human.
Series [5] deals with pre-menstrual syndrome (PMS). The experiment in a line: Patient No. 2 pre-menstrual syndrome observation. Type of series: in vivo, human. The conditions noted are these: chromium 200 μg per day. The procedure:
They said that they had less carbohydrate craving during the week before, that they were less irritable, that their dysphoria was relieved, and that their usual cramps were non-existent. Thus, an aspect of the present invention includes the treatment of pre-menstrual syndrome (PMS), or dysmenorrhea (problematic and/or painful menses), comprising administering chromium in a preferred dose of 200 μg per day to a patient in need thereof.

A short description of the next series: Plasma chromium level. It counts as in vivo, human. The method, then:
Most preferred dosage ranges of chromium are those doses sufficient to deliver from about 4.5 to about 6 μg of chromium per kilogram (kg) of body weight. This dosage range is generally several fold greater than that contained in most commercially available multi-vitamin and mineral preparations. This amount results in a plasma chromium level between 0.9 μg/liter to 2.1 μg/liter. The plasma level will vary depending on the level of exercise, i.e., the more one exercises, the more chromium is required to maintain plasma levels.
Commercially available tubes for the collection of blood can contain significant amounts of chromium. To avoid contamination, plasma levels of chromium should be determined from blood collected in heparinized or EDTA tubes.

Setting [6] is: sertraline 100 mg with one vitamin C tablet daily, first week.
Setting [7] is: sertraline only, 50 to 150 mg qd.

Entries after “also recorded” stand apart in the source; their conditions may differ. Structures can show the parent of a compound that is named as a salt.

For `CN(C)CCC=C1c2ccccc2CCc2ccccc21` [ELAVIL, amitriptyline HCl], the effect on depression result is “helped them sleep” with severe dysthymia (50 mg per day) and “no effect” in the series with severe dysthymia (increased to 100 mg per day after tolerance).

Take `CC(NC(C)(C)C)C(=O)c1cccc(Cl)c1` (centres unmarked) [bupropion]: the “adverse effect leading to discontinuation” value in the series on severe dysthymia (bupropion 100 mg b.i.d. with lithium 300 mg t.i.d.) was “developed involuntary muscle twitches”.

Take `[Cr]` [chromium]: the “time to relief of symptoms” value in the series with severe dysthymia (chromium picolinate 200 μg b.i.d. with sertraline 100 mg qd) was “relief of symptoms within four to five days”.

With `CNCCC(Oc1ccc(C(F)(F)F)cc1)c1ccccc1` (centres unmarked) [fluoxetine], the “women suffering from PMS without a positive response” value in series [1] is recorded as roughly 40%.

For the molecule `Fc1ccc([C@@H]2CCNC[C@H]2COc2ccc3c(c2)OCO3)cc1` [paroxetine], the “change in severity of PMS symptoms” value in series [2] (paroxetine) is “reduced the severity of their symptoms of PMS from severe to moderately severe”. For the same molecule, in series [2] (paroxetine 20 mg t.i.d. and lithium 300 mg t.i.d.), the “patient rating of PMS” value is “moderate to severe and barely tolerable”. The depression result in series [2] (resumed lithium 300 mg t.i.d. and paroxetine 40 mg per day) is reported as “their depression was refractory”.

On to `[Se]` [selenium], for which the “patient-reported symptoms during week” value in series [3] is given as “felt agitated”.

Regarding `CN[C@H]1CC[C@@H](c2ccc(Cl)c(Cl)c2)c2ccccc21` [sertraline, reference compound], the effect on depression entry in the series with dysthymia (sertraline 50 mg qd) is reported as “little help”. In addition, in the series with dysthymia (sertraline 100 mg qd for five weeks), the effect on depression result is listed as “still symptomatic of depression, but felt better”. In addition, in the series on dysthymia (setting [6]), the SCL-90 score result is recorded as “+4” and the “grand total Beck score” value is given as “+12”. Further, the “total Beck score” value in series [3] (sertraline 125 mg each day for five days with vitamin C placebo) was “+10”. Further, the “symptoms in week prior to study” value in series [3] (sertraline 125 mg qd alone) was “loss of energy, disturbed sleep, and awaking tired”. Further, in series [3] (setting [7]), the “relief of symptoms of dysthymia” value is on record as “provided some relief of the symptoms of dysthymia”; the side effects result is “made the patient sluggish in their daily activities and made their thinking cloudy, or fuzzy”.

For the molecule chromium picolinate, the alcohol cravings entry in the series on alcohol craving is “significantly diminished alcohol cravings”. Moreover, the “patient-reported condition on chromium alone” value in series [4] (400 μg chromium per day (200 μg b.i.d.), sertraline discontinued) is “their sleep was much improved; also recorded: felt the best they had felt in a decade”. Besides, the “time to improvement after dose increase” value in series [4] (crisis period at work, 200 μg chromium t.i.d.) is “Within an hour, they noticed immediate improvement”. Also, in series [5], the “pre-menstrual syndrome / menses symptoms” value is listed as “their menses was less problematic”. Moreover, in series [2] (chromium 200 μg b.i.d. with paroxetine 20 mg t.i.d. and lithium 300 mg t.i.d.), the “signs or symptoms of PMS” value was “completely without signs or symptoms of PMS, except for breast swelling”. In addition, in the series on severe dysthymia (chromium 200 μg twice daily, 400 μg per day), the overall response entry is on record as “marked improvement”. The SCL-90 score entry in the series on dysthymia (200 μg chromium per day with sertraline 100 mg per day, second week) is “definite improvement”. The “response after resuming treatment” value with dysthymia (chromium picolinate 200 μg per day) is “Within two days they felt better and had no symptoms”. In addition, the “patient-reported symptoms during week” value in the series with dysthymia (component taken along with sertraline 100 mg per day) is “their appetite was less”; in [3] it was “dramatic, certain and immediate relief of symptoms”. Further, the “Beck Scale estimated via telephone interview” value in the series with dysthymia (resumed chromium picolinate 200 μg per day, sertraline continued) is recorded as “+2”. The same molecule came in with a plasma chromium level in the series “Plasma chromium level” (Patient No. 1, 400 μg chromium per day as chromium picolinate, sertraline discontinued) of 0.9 µg/L. In “Plasma chromium level” (Patient No. 2, four days after resuming chromium picolinate 200 μg per day), this molecule gave a plasma chromium of 0.8 µg/L. Moreover, in series [3] (200 μg chromium from chromium picolinate taken late in the day), the “potential adverse side effect” value was “their sleep was disturbed”. Further, in series [3] (one pill of component a day for five days along with sertraline 125 mg qd (chromium 200 μg per day)), the “total Beck score at the end of the week” value was found to be 0.

Values taken from patent US20020032182A1, “Method of treating hypersomnia sleep disturbance or insomnia sleep disturbance that is secondary to another condition” (priority 1997, published 2002).
